# Measured values published in patent US20110269759A1, “PYRIMIDINE COMPOUNDS AS DELTA OPIOID RECEPTOR MODULATORS” (priority 2009, published 2011).
# Like-named read-outs stand apart in the source and are kept apart here.
# What was measured:
# Delta Opioid Receptor [1] = molecular target: T1, Delta Opioid Receptor (Rattus norvegicus, UniProt P33533); assay: Rat brain delta opioid receptor binding assay ([3H]DPDPE or [3H]naltrindole)
# T1 construct: the forebrains were homogenized in Tris buffer in a Teflon®-glass homogenizer; from tissue; host or cells: forebrain of male Wistar rats, particulate membrane preparation
# T1 sequence (P33533 whole entry): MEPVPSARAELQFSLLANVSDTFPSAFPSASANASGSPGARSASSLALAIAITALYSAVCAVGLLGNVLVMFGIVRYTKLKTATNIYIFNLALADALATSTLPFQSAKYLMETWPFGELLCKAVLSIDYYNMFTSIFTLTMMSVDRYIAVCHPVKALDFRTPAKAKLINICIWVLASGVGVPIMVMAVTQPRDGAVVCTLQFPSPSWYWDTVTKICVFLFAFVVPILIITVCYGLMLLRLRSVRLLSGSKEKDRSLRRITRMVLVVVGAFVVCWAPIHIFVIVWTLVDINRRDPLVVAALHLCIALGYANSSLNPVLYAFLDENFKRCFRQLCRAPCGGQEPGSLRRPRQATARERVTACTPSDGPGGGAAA
# δ-opioid receptor [2] = molecular target: T2, δ-opioid receptor (Mus musculus, UniProt P32300); assay: [35S]GTPγS δ-opioid receptor functional assay (EC50, relative efficacy, % inhibition); assay type: biochemical; set-up: NG108-15 cell membranes were purchased from Applied Cell Sciences (Rockville, Md.); settings: for inhibition at 10 µM: read-out: GTPγS δ-opioid receptor % Inh @10 μM
# T2 sequence (P32300 whole entry): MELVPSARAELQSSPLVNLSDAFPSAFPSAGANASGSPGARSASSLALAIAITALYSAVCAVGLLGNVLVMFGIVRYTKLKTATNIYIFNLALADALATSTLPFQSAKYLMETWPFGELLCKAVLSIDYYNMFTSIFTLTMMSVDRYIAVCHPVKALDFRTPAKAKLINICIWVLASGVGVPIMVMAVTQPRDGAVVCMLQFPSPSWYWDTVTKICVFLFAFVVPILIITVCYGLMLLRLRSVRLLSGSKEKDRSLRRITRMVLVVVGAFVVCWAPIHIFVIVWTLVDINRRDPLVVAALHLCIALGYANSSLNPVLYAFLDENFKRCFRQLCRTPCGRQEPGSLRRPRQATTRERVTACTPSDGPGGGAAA
# mice = assay: Mouse Graded Abdominal Irritant Test (GrAIT); assay type: in vivo; settings: 10% Solutol, 30 min pretreatment
# Experimental: Test compound or vehicle was administered s.c. or p.o. to mice. Following the pretreatment time, an i.p. injection of 0.6% of acetic acid in 0.5 mL was administered. Five min after acetic acid administration, mice were placed into clear chambers and were continuously observed for 5 min. Behavioral responses including twisting and elongation of the body that extended through the hindlimbs were counted and averaged for the group of animals over the observation period.
# Mu Opioid Receptor = molecular target: T3, Mu Opioid Receptor (Rattus norvegicus, UniProt P33535); assay: Rat brain mu opioid receptor binding assay ([3H]DAMGO)
# T3 construct: the forebrains were homogenized in Tris buffer in a Teflon®-glass homogenizer; from tissue; host or cells: forebrain of male Wistar rats, particulate membrane preparation
# T3 sequence (P33535 whole entry): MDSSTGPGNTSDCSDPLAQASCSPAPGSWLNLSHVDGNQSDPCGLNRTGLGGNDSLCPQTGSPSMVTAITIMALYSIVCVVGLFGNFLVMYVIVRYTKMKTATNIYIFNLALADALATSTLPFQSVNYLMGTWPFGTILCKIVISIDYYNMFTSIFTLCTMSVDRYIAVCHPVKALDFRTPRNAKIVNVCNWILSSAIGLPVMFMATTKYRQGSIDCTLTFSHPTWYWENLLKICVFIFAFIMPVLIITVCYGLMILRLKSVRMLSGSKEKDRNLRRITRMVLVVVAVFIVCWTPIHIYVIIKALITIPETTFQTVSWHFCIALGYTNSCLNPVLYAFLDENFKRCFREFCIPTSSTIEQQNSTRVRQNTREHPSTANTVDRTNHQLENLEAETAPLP
# δ-opioid receptor [3] = molecular target: T2, δ-opioid receptor; assay: [35S]GTPγS binding assay in NG108-15 cell membranes (delta opioid functional assay), 200 nM screen; assay type: biochemical; set-up: NG108-15 cell membranes were purchased from Applied Cell Sciences (Rockville, Md.); host or cells: NG108-15 cell membranes (purchased); settings: 200 nM compound, relative to calculated max of SNC80 dose response
# Delta Opioid Receptor [4] = molecular target: T4, Delta Opioid Receptor (Mus musculus, UniProt P32300); assay: NG108-15, 24-well delta opioid receptor binding assay ([3H]naltrindole)
# T4 construct: NG108-15 cell membranes were purchased from Applied Cell Sciences (Rockville, Md.); host or cells: NG108-15 cell membranes (purchased)
# T4 sequence (P32300 whole entry): as the sequence (P32300 whole entry) above
# [5] = NG108-15 cell membranes, ~0.2 nM [3H]naltrindole, read-out: δ-binding NG108 cell membrane Ki
smiles,measurement,setting,value
"CCN(CC)C(=O)/C=C/c1ccc(NC[C@@H]2CCCN2)c(Oc2ccc(OC)cc2)c1 [Cpd 1, (2E)-N,N-Diethyl-3-[3-(4-methoxyphenoxy)-4-{[(2S)-pyrrolidin-2-ylmethyl]amino}phenyl]prop-2-enamide]",Ki,Delta Opioid Receptor [1],6.08 nM
same,EC50,δ-opioid receptor [2],109 nM
same,GTPγS δ-opioid receptor Rel Efficacy,δ-opioid receptor [2],0.8328
same,inhibition at 10 µM,δ-opioid receptor [2],2.26%
same,# abdominal stretches (cpd),mice; 30 mg/kg s.c.,10.9
same,Ki,Mu Opioid Receptor,3370 nM
CCN(CC)C(=O)c1ccc(NC[C@@H]2CCCN2)c(Oc2ccc(OC)cc2)c1 [Cpd 10],Ki,"Delta Opioid Receptor [1]; rat forebrain membranes, 0.25 nM [3H]naltrindole, read-out: δ-binding (Naltrindole ligand) Ki",936 nM
same,# abdominal stretches (cpd),mice; 30 mg/kg p.o.,19
same,# abdominal stretches (cpd),mice; 30 mg/kg s.c.,11
same,# abdominal stretches (cpd),mice; 100 mg/kg p.o.,17.9
same,# abdominal stretches (cpd),mice; 300 mg/kg p.o.,21.2
same,Ki,Mu Opioid Receptor,936 nM
"COc1ccc(Oc2cc(-c3cncc(C#N)c3)ccc2NC[C@@H]2C[C@@H](F)CN2)cc1 [Cpd 24, (2S,4R)-5-[4-[(4-Fluoro-pyrrolidin-2-ylmethyl)-amino]-3-(4-methoxy-phenoxy)-phenyl]-nicotinonitrile]",EC50,δ-opioid receptor [2],46.1 nM
same,GTPγS δ-opioid receptor Rel Efficacy,δ-opioid receptor [2],1.0158
same,GTPγS δ-RelEfficacy @200 nM,δ-opioid receptor [3],1.01
COc1ccc(Oc2cc(-c3cncc(F)c3)ccc2NC[C@@H]2C[C@@H](F)CN2)cc1 [Cpd 25],EC50,δ-opioid receptor [2],92.4 nM
same,GTPγS δ-opioid receptor Rel Efficacy,δ-opioid receptor [2],1.0217
same,GTPγS δ-RelEfficacy @200 nM,δ-opioid receptor [3],0.78
COc1ccc(Oc2cc(-c3cncc(SC)c3)ccc2NC[C@@H]2C[C@@H](F)CN2)cc1 [Cpd 26],EC50,δ-opioid receptor [2],187 nM
same,GTPγS δ-opioid receptor Rel Efficacy,δ-opioid receptor [2],1.0716
same,GTPγS δ-RelEfficacy @200 nM,δ-opioid receptor [3],0.7
COc1ccc(Oc2cc(-c3cccnc3)ccc2NC[C@@H]2CCCN2)cc1 [Cpd 39],Ki,Delta Opioid Receptor [1],22.1 nM
same,EC50,δ-opioid receptor [2],111 nM
same,GTPγS δ-opioid receptor Rel Efficacy,δ-opioid receptor [2],0.9245
same,inhibition at 10 µM,δ-opioid receptor [2],13.4%
same,Ki,Delta Opioid Receptor [4],1.65 nM
same,Ki,Mu Opioid Receptor,3110 nM
COc1ccc(Oc2cc(-c3cncnc3)ccc2NC[C@@H]2CCCN2)cc1 [Cpd 42],Ki,Delta Opioid Receptor [4]; [5],1.39 nM
same,GTPγS δ-RelEfficacy @200 nM,δ-opioid receptor [3],0.39
COc1ccc(Oc2cc(-c3cncc(F)c3)ccc2NC[C@@H]2CCCN2)cc1 [Cpd 43],EC50,δ-opioid receptor [2],218 nM
same,GTPγS δ-opioid receptor Rel Efficacy,δ-opioid receptor [2],1.0908
same,Ki,Delta Opioid Receptor [4],0.76 nM
same,GTPγS δ-RelEfficacy @200 nM,δ-opioid receptor [3],0.43
COc1ccc(Oc2cc(-c3cncc(C#N)c3)ccc2NC[C@@H]2CCCN2)cc1 [Cpd 44],GTPγS δ-opioid receptor Rel Efficacy,δ-opioid receptor [2],1.1554
same,EC50,δ-opioid receptor [2]; read-out: GTPγS δ-opioid receptor EC50,118 nM
same,Ki,Delta Opioid Receptor [4]; [5],0.436 nM
same,GTPγS δ-RelEfficacy @200 nM,δ-opioid receptor [3],0.45
CCN(C[C@@H]1CCCN1)c1ccc(-c2cncnc2)cc1Oc1ccc(OC)cc1 [Cpd 51],Ki,Delta Opioid Receptor [4]; [5],77 nM
CCN(C[C@@H]1CCCN1)c1ccc(-c2cncc(C#N)c2)cc1Oc1ccc(OC)cc1 [Cpd 52],Ki,Delta Opioid Receptor [4],9.33 nM
